Laboratory results reported in PubChem BioAssay AID1963852 (Molecular Pharmacology Branch, DTP, NCI, 2024).

Tested on: 282377-053-R-J1-PDC complex spheroid viability
Assay: Anticancer human tumor 282377-053-R-J1-PDC patient-derived colon adenocarcinoma cell line growth inhibition [POLQ]
Conditions: for IC50: curve of first compound; for viability, T/C: stronger effect = lower value
How it was run: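 Patient-derived tumour cells were co-cultured with HUVEC and mesenchymal stem cells as multicellular spheroids at 37 °C. They were treated with POLQ inhibitors (novobiocin, ART-558, RP6685) alone or combined with other agents. Top concentrations were at or near clinical Cmax (otherwise 10 microM; SN-38 at 1 microM), decreasing in half-log steps.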

[1] = second compound 0.0316 µM, first compound 0.0316 µM
[2] = second compound 0.0316 µM, first compound 0.1 µM
[3] = second compound 0.0316 µM, first compound 0.316 µM
[4] = second compound 0.0316 µM, first compound 1 µM
[5] = second compound 0.0316 µM, first compound 3.16 µM
[6] = second compound 0.0316 µM, first compound 10 µM
[7] = second compound 0.1 µM, first compound 0.0316 µM
[8] = second compound 0.1 µM, first compound 0.1 µM
[9] = second compound 0.1 µM, first compound 0.316 µM
[10] = second compound 0.1 µM, first compound 1 µM
[11] = second compound 0.1 µM, first compound 3.16 µM
[12] = second compound 0.1 µM, first compound 10 µM
[13] = second compound 0.316 µM, first compound 0.0316 µM
[14] = second compound 0.316 µM, first compound 0.1 µM
[15] = second compound 0.316 µM, first compound 0.316 µM
[16] = second compound 0.316 µM, first compound 1 µM
[17] = second compound 0.316 µM, first compound 3.16 µM
[18] = second compound 0.316 µM, first compound 10 µM
[19] = second compound 1 µM, first compound 0.0316 µM
[20] = second compound 1 µM, first compound 0.1 µM
[21] = second compound 1 µM, first compound 0.316 µM
[22] = second compound 1 µM, first compound 1 µM
[23] = second compound 1 µM, first compound 3.16 µM
[24] = second compound 1 µM, first compound 10 µM
[25] = second compound 3.16 µM, first compound 0.0316 µM
[26] = second compound 3.16 µM, first compound 0.1 µM
[27] = second compound 3.16 µM, first compound 0.316 µM
[28] = second compound 3.16 µM, first compound 1 µM
[29] = second compound 3.16 µM, first compound 3.16 µM
[30] = second compound 3.16 µM, first compound 10 µM
[31] = second compound 10 µM, first compound 0.0316 µM
[32] = second compound 10 µM, first compound 0.1 µM
[33] = second compound 10 µM, first compound 0.316 µM
[34] = second compound 10 µM, first compound 1 µM
[35] = second compound 10 µM, first compound 3.16 µM
[36] = second compound 10 µM, first compound 10 µM
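Further: spheroids exposed to compounds for seven days.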
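Wherever viability, T/C is given: 100% = DMSO vehicle control viability.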

CC1COCCN1c1cc(-c2ccnn2C)c2ccnc(-c3ccn[nH]3)c2n1 (stereo unspecified) + Nc1ccc(C#CCN(C(=O)Cc2ncc(C(F)(F)F)cc2C(F)(F)F)c2ccc(F)cc2)nn1
IC50 (second compound 0.0316 µM): 2.12 µM
IC50 (second compound 0.1 µM): 0.717 µM
IC50 (second compound 0.316 µM): 0.826 µM
IC50 (second compound 1 µM): 0.821 µM
IC50 (second compound 3.16 µM): 0.997 µM
IC50 (second compound 10 µM): 1.2 µM
viability, T/C [1]: 84.6%
viability, T/C [2]: 78.7%
viability, T/C [3]: 69.4%
viability, T/C [4]: 62.3%
viability, T/C [5]: 42.6%
viability, T/C [6]: 35.1%
viability, T/C [7]: 86.2%
viability, T/C [8]: 88%
viability, T/C [9]: 66.4%
viability, T/C [10]: 44.3%
viability, T/C [11]: 41.1%
viability, T/C [12]: 41.2%
viability, T/C [13]: 91%
viability, T/C [14]: 81%
viability, T/C [15]: 58.8%
viability, T/C [16]: 49.4%
viability, T/C [17]: 45.8%
viability, T/C [18]: 41.5%
viability, T/C [19]: 94.5%
viability, T/C [20]: 83.2%
viability, T/C [21]: 67.3%
viability, T/C [22]: 43.8%
viability, T/C [23]: 41.5%
viability, T/C [24]: 33%
viability, T/C [25]: 100%
viability, T/C [26]: 78.3%
viability, T/C [27]: 67.3%
viability, T/C [28]: 49.4%
viability, T/C [29]: 37.3%
viability, T/C [30]: 44.8%
viability, T/C [31]: 103%
viability, T/C [32]: 84.2%
viability, T/C [33]: 78.5%
viability, T/C [34]: 47.9%
viability, T/C [35]: 39.5%
viability, T/C [36]: 46.3%

CCc1cc2c(N3CCc4c(cc(Cn5ccnc5)cc4-c4cn(C)nc4C(F)(F)F)C3=O)ccnc2c(OC)n1 + COC1C(OC(N)=O)C(O)C(Oc2ccc3c(O)c(NC(=O)c4ccc(O)c(CC=C(C)C)c4)c(=O)oc3c2C)OC1(C)C
IC50 (second compound 0.0316 µM): > 10 µM
IC50 (second compound 0.1 µM): > 10 µM
IC50 (second compound 0.316 µM): > 10 µM
IC50 (second compound 1 µM): > 10 µM
IC50 (second compound 3.16 µM): > 10 µM
IC50 (second compound 10 µM): > 10 µM
viability, T/C [1]: 114%
viability, T/C [2]: 132%
viability, T/C [3]: 139%
viability, T/C [4]: 144%
viability, T/C [5]: 135%
viability, T/C [6]: 72.3%
viability, T/C [7]: 120%
viability, T/C [8]: 153%
viability, T/C [9]: 140%
viability, T/C [10]: 146%
viability, T/C [11]: 118%
viability, T/C [12]: 90.6%
viability, T/C [13]: 147%
viability, T/C [14]: 110%
viability, T/C [15]: 132%
viability, T/C [16]: 130%
viability, T/C [17]: 127%
viability, T/C [18]: 78%
viability, T/C [19]: 124%
viability, T/C [20]: 109%
viability, T/C [21]: 123%
viability, T/C [22]: 134%
viability, T/C [23]: 132%
viability, T/C [24]: 95.4%
viability, T/C [25]: 124%
viability, T/C [26]: 124%
viability, T/C [27]: 150%
viability, T/C [28]: 145%
viability, T/C [29]: 118%
viability, T/C [30]: 86.9%
viability, T/C [31]: 115%
viability, T/C [32]: 127%
viability, T/C [33]: 144%
viability, T/C [34]: 161%
viability, T/C [35]: 113%
viability, T/C [36]: 92.9%

CC(C)n1c(=O)n(C)c2cnc3cc(F)c(-c4ccc(OCCCN5CCCCC5)nc4)cc3c21 + Cc1cccc(N(C)C(=O)C2C(O)CCN2c2nc(C)cc(C(F)(F)F)c2C#N)c1
IC50 (second compound 0.0316 µM): > 10 µM
IC50 (second compound 0.1 µM): > 10 µM
IC50 (second compound 0.316 µM): > 10 µM
IC50 (second compound 1 µM): > 10 µM
IC50 (second compound 3.16 µM): > 10 µM
IC50 (second compound 10 µM): > 10 µM
viability, T/C [1]: 97.8%
viability, T/C [2]: 129%
viability, T/C [3]: 99%
viability, T/C [4]: 114%
viability, T/C [5]: 109%
viability, T/C [6]: 88.3%
viability, T/C [7]: 95.2%
viability, T/C [8]: 123%
viability, T/C [9]: 98.2%
viability, T/C [10]: 97.5%
viability, T/C [11]: 129%
viability, T/C [12]: 84.8%
viability, T/C [13]: 99.6%
viability, T/C [14]: 92.3%
viability, T/C [15]: 96%
viability, T/C [16]: 89.5%
viability, T/C [17]: 99.1%
viability, T/C [18]: 73.8%
viability, T/C [19]: 105%
viability, T/C [20]: 99.8%
viability, T/C [21]: 97.7%
viability, T/C [22]: 105%
viability, T/C [23]: 106%
viability, T/C [24]: 93.2%
viability, T/C [25]: 81.5%
viability, T/C [26]: 102%
viability, T/C [27]: 96.4%
viability, T/C [28]: 98.9%
viability, T/C [29]: 97.1%
viability, T/C [30]: 92.7%
viability, T/C [31]: 93.2%
viability, T/C [32]: 87.3%
viability, T/C [33]: 110%
viability, T/C [34]: 81.9%
viability, T/C [35]: 120%
viability, T/C [36]: 82.1%
